From patent US20080139655A1, “SUSTAINED-RELEASE COMPOSITION AND METHOD OF USE THEREOF” (DrugTech Corporation, priority 2006, published 2008)

Experiments:
[1] = Dissolution testing of tablet formulations A and B (USP apparatus II with paddles, 50 rpm, 900 ml 0.1N HCl); type: physicochemical; conditions: USP apparatus II paddles 50 rpm, typical range for both formulations
Procedure: Tablet formulations A and B prepared as above are subjected to dissolution testing for both levodopa and carbidopa (USP apparatus II with paddles, 50 rpm, dissolution medium 900 ml 0.1N HCl) over a 12 hour period.

[2] = approximately; background statement; cited from earlier work

Row | % Dissolved ([1]; time 1 h) | % Dissolved ([1]; time 2 h) | % Dissolved ([1]; time 4 h) | % Dissolved ([1]; time 8 h) | % Dissolved ([1]; time 12 h) | SMILES | half-life [2] [min]
1 | 15-25% | 25-40% | 40-70% | 65-80% | 80-95% | C[C@@](Cc1ccc(O)c(O)c1)(NN)C(=O)O [carbidopa] | 
2 | 15-25% | 25-40% | 40-70% | 65-80% | 80-95% | N[C@@H](Cc1ccc(O)c(O)c1)C(=O)O [levodopa, 3,4-dihydroxy-L-phenylalanine] | 45 to 90
